The results in this text go back to patent US6703421B1, “Methods of using phenylmethylbenzoquinone and hydroquinone compounds for treatment of myocarditis, dilated cardiomyopathy and heart failure” (Daiichi Suntory Pharma Co., Ltd., priority 1999, dated 2004).

The test system of assay [1] is EMC virus-inoculated DBA/2 mice (viral myocarditis). Kind of assay: Survival rate in murine viral myocarditis model. The format is in vivo, mouse. On the procedure:
Viral myocarditis mice were prepared using the procedure described below in accordance with a known method (Shioi T. et al. (1997) J. Mol. Cell. Cardiol., 29, 2327-2334). Variant M (acquired from the American Type Culture Collection) was used for the EMC virus for inoculation and prepared to 100 pfu/ml in Eagle's MEM medium (Nissui Pharmaceutical). Four-week-old DBA/2 male mice were divided into two groups, and intraperitoneally inoculated with EMC virus at 10 pfu/animal. Test compound was then administered intraperitoneally and daily for 14 days under the following conditions to each group starting 3 hours after inoculation.
The test compound was used after dissolving in 0.5% aqueous gum arabic solution (3 mg/ml). In the present example, the compound of Production Example 4 was used in the test as the NF-κB inhibitor.
Test group (n=10): Administration of NF-κB inhibitor (Production Example 4) at 30 mg/kg body weight Control group (n=10): 0.5% aqueous gum arabic solution
The experiment was conducted in the following three groups using the same method as Example 2 and the compound of Production Example 7 for the NF-κB inhibitor. The test compound was used after dissolving in 10% aqueous dimethylsulfoxide solution (DMSO) (test group 1: 0.3 mg/ml, test group 2: 3 mg/ml). The survival rates were tested for the presence of a significant difference according to the Kaplan-Meier method, and statistical significance was defined as p<0.05.
Test group 1 (n=21): Administration of NF-κB inhibitor (Production Example 7) at 3 mg/kg body weight
Test group 2 (n=21): Administration of NF-κB inhibitor (Production Example 7) at 30 mg/kg body weight
Four-week-old DBA/2 male mice were inoculated with EMC virus using the same method as Example 2, and the test compound was administered orally and daily for 14 days under the following conditions to each group starting 2 hours after inoculation.
The test compound was used after dissolving in 10% aqueous sulfobutylcyclodextrin solution (3 mg/ml). In the present example, the compound of Production Example 44 was used in the test as the NF-κB inhibitor.
Test group (n=20): Administration of NF-κB inhibitor (Production Example 44) at 30 mg/kg body weight

A further assay relates to NF-κB. Kind of assay: NF-κB luciferase reporter assay in A549/NF-κBLuc cells. In kind it is cell-based, human. To be noted: for IC50: Homo sapiens, A549/NF-κBLuc, luciferase activity. On the procedure:
Using lipofectamine (Lifetech Oriental K. K., Tokyo) according to the conventional method, human lung cancer cell line A549 cells (ATCC catalog no. CCL185), which are known to express hiNOS by cytokine stimulation, were co-transfected with pNFκB-Luc, which are plasmid controlled by a NF-κB binding consensus sequence, and pSV2neo (Clontech, U.S.A.), and then A549/NF-κBLuc, the cell that has stably introduced pNFκB-Luc, was selected by adding G418 sulfate (1 mg/ml, Lifetech Oriental K. K.) to the culture medium.
The luciferase activity was measured using the Luciferase Assay System (Promega, U.S.A.).
A general note: A reporter such as luciferase makes a cellular process visible.

Setting [2] is: IL-1β (1 ng/ml) for 4 hours, read-out: IC50 (μM) IL-1 stimulation.
The mark [3] stands for this setting: TNF-α (500 ng/ml) for 4 hours, read-out: IC50 (μM) TNF stimulation.

Like-named read-outs stand apart in the source and are kept apart here.

Broadly, the IC50 is the concentration that inhibits the measured activity by half. As for `COC1=C(OC)C(=O)C(Cc2ccc(CCC(=O)N3CCSCC3)cc2)=C(C)C1=O` [Prod. Ex. 4, N-[3-[4-(5,6-Dimethoxy-3-methyl-1,4-benzoquinon-2-ylmethyl)phenyl]propionyl]thimorpholine], in assay [1] (30 mg/kg intraperitoneally daily for 14 days, 0.5% gum arabic, FIG. 2), the survival rate entry is recorded as “improves the survival rate”. Moreover, the “luciferase activity regulated by activation of NF-κB” value in the assay on NF-κB (A549/NF-κBLuc stimulated with IL-1β (1 ng/ml) or TNF-α (500 ng/ml) for 4 hours, dose-dependent, FIG. 1) is “suppresses luciferase activity”. In addition, the concentration for half-maximal inhibition (IC50) in the assay with NF-κB (setting [2]) and in the assay on NF-κB (setting [3]) was 10 µM each time.
With `COC1=C(OC)C(=O)C(Cc2cccc(C(=O)N3CCOCC3)c2)=C(C)C1=O` [Prod. Ex. 44, N-[3-(5,6-Dimothoxy-3-methyl-1,4-benzoquinon-2-ylmethyl)benzoyl]morpholine], in assay [1] (30 mg/kg orally daily for 14 days, 10% sulfobutylcyclodextrin, FIG. 4), the survival rate result was “improves survival rate”. In the assay with NF-κB (setting [2]), the IC50 worked out at 39 µM.
On to `COC1=C(OC)C(=O)C(Cc2ccccc2CCC(=O)N2CCOCC2)=C(C)C1=O` [Prod. Ex. 71, N-[3-[2-(5,6-Dimethoxy-3-methyl-1,4-benzoquinon-2-ylmethyl)phenyl]propionyl]morpholine], for which, in the assay on NF-κB (setting [2]), the IC50 was 56 µM.
On the same count and under the same terms, under `COC1=C(OC)C(=O)C(Cc2ccccc2CCC(=O)N2CCSCC2)=C(C)C1=O` [Prod. Ex. 72, N-[3-[2-(5,6-dimethoxy-3-methyl-1,4-benzoquinon-2-ylmethyl)phenyl]propionyl]thiomorpholine] stands 42 µM; under `COC1=C(OC)C(=O)C(Cc2ccccc2CCC(=O)NC(C)C)=C(C)C1=O` [Prod. Ex. 73, N-[3-[2-(5,6-Dimethoxy-3-methyl-1,4-benzoquinon-2-ylmethyl)phenyl]propionyl]isopropylamine], 34 µM.
Turning to `COC[C@H]1CCCN1C(=O)CCc1ccc(CC2=C(C)C(=O)C(OC)=C(OC)C2=O)cc1` [Prod. Ex. 76], the half-maximal inhibitory concentration (IC50) in the assay with NF-κB (setting [2]) is 14 µM.
Consider `COC1=C(OC)C(=O)C(Cc2ccc(CCC(=O)N3CCC(C(N)=O)CC3)cc2)=C(C)C1=O` [Prod. Ex. 79], for which, in the assay with NF-κB (setting [2]), the IC50 was 13 µM.
For `COC1=C(OC)C(=O)C(Cc2ccc(CCC(=O)N3CCC(C)CC3)cc2)=C(C)C1=O` [Prod. Ex. 81], in the assay with NF-κB (setting [2]), the IC50 is 5 µM.
On the same count and under the same terms, for `COC1=C(OC)C(=O)C(Cc2ccc(CCC(=O)N3CCCCC3C)cc2)=C(C)C1=O` (stereo not drawn) [Prod. Ex. 83] the value was 1 µM; for `COC1=C(OC)C(=O)C(Cc2ccc(CCC(=O)N3CCCC(C)C3)cc2)=C(C)C1=O` (stereo not drawn) [Prod. Ex. 85], 5 µM; for `COC1=C(OC)C(=O)C(Cc2ccc(CCC(=O)Nc3ccc(OC)cc3)cc2)=C(C)C1=O` [Prod. Ex. 94], 1 µM.
For `COC1=C(OC)C(=O)C(Cc2ccc(CCC(=O)Nc3ccccc3O)cc2)=C(C)C1=O` [Prod. Ex. 96], the concentration for half-maximal inhibition (IC50) in the assay with NF-κB (setting [2]) was 17 µM.
For `COC1=C(OC)C(=O)C(Cc2ccc(CCC(=O)Nc3ccc(OC)c(OC)c3)cc2)=C(C)C1=O` [Prod. Ex. 103], the IC50 in the assay with NF-κB (setting [2]) came out at 10 µM.
Consider `COC1=C(OC)C(=O)C(Cc2ccc(CCC(=O)NC(C)CO)cc2)=C(C)C1=O` (stereo not drawn) [Prod. Ex. 104], for which, in the assay with NF-κB (setting [2]), the IC50 was 12 µM.
On the same count and under the same terms, for `CCOC(=O)C1CCCCN1C(=O)CCc1ccc(CC2=C(C)C(=O)C(OC)=C(OC)C2=O)cc1` (stereo not drawn) [Prod. Ex. 105] the value was 16 µM; for `COC1=C(OC)C(=O)C(Cc2ccc(CCC(=O)N3CCC[C@H]3C(N)=O)cc2)=C(C)C1=O` [Prod. Ex. 106], 7 µM; for `COC1=C(OC)C(=O)C(Cc2ccc(CCC(=O)Nc3ccc(CC#N)cc3)cc2)=C(C)C1=O` [Prod. Ex. 111], 14 µM.
For `CCCCCc1ccc(NC(=O)CCc2ccc(CC3=C(C)C(=O)C(OC)=C(OC)C3=O)cc2)cc1` [Prod. Ex. 113], the half-inhibitory concentration (IC50) with NF-κB (setting [2]) was 16 µM.
Same read-out and setting: under `COC1=C(OC)C(=O)C(Cc2ccc(CCC(=O)N[C@@H](C)c3ccccc3)cc2)=C(C)C1=O` [Prod. Ex. 120] stands 2 µM; under `COC1=C(OC)C(=O)C(Cc2ccc(CCC(=O)N[C@H](C)c3ccccc3)cc2)=C(C)C1=O` [Prod. Ex. 121], 7 µM; under `COC1=C(OC)C(=O)C(Cc2ccc(CCC(=O)NC(C)CC(C)C)cc2)=C(C)C1=O` (stereo not drawn) [Prod. Ex. 128], 19 µM.
As for `COC1=C(OC)C(=O)C(Cc2ccc(CCC(=O)NC3CCCCCC3)cc2)=C(C)C1=O` [Prod. Ex. 136], the IC50 with NF-κB (setting [2]) worked out at 18 µM.
Same read-out and setting: under `COC1=C(OC)C(=O)C(Cc2ccc(CCC(=O)N3CC(C)CC(C)C3)cc2)=C(C)C1=O` (stereo not drawn) [Prod. Ex. 137] stands 7 µM; under `CCOC(=O)N1CCN(C(=O)CCc2ccc(CC3=C(C)C(=O)C(OC)=C(OC)C3=O)cc2)CC1` [Prod. Ex. 147], 47 µM.
Consider `COC1=C(OC)C(=O)C(Cc2ccc(CCC(=O)N3CCN(c4ccccc4)CC3)cc2)=C(C)C1=O` [Prod. Ex. 148], for which the IC50 in the assay with NF-κB (setting [2]) came to 25 µM.
Regarding `COC1=C(OC)C(=O)C(Cc2ccc(CCC(=O)N3CCC(O)(c4ccccc4)CC3)cc2)=C(C)C1=O` [Prod. Ex. 151], in the assay with NF-κB (setting [2]), the IC50 is 20 µM.
As for `COC1=C(OC)C(=O)C(Cc2ccc(CCC(=O)N3CCC(O)(c4ccc(Cl)cc4)CC3)cc2)=C(C)C1=O` [Prod. Ex. 154], the IC50 with NF-κB (setting [2]) was determined as 28 µM.
For `COC1=C(OC)C(=O)C(Cc2ccc(CCC(=O)N3CCN(c4ccccc4OC)CC3)cc2)=C(C)C1=O` [Prod. Ex. 163], the half-maximal inhibitory concentration (IC50) in the assay with NF-κB (setting [2]) came to 19 µM.
On the same count and under the same terms, under `COC1=C(OC)C(=O)C(Cc2ccc(CCC(=O)N3CCc4cc(OC)c(OC)cc4C3)cc2)=C(C)C1=O` [Prod. Ex. 167] stands 15 µM.
For the compound `COC1=C(OC)C(=O)C(Cc2ccc(CCC(=O)N3CCC(C(C)=O)(c4ccccc4)CC3)cc2)=C(C)C1=O` [Prod. Ex. 168], the IC50 in the assay on NF-κB (setting [2]) came to 9 µM.
Take `COC1=C(OC)C(=O)C(Cc2ccc(CCC(=O)N3CCc4ccccc4C3)cc2)=C(C)C1=O` [Prod. Ex. 169]: the IC50 with NF-κB (setting [2]) worked out at 43 µM.
Consider `COC1=C(OC)C(=O)C(Cc2ccc(CCC(=O)NCCC(C)C)cc2)=C(C)C1=O` [Prod. Ex. 173], for which, in the assay with NF-κB (setting [2]), the IC50 is 36 µM.
For `COC1=C(OC)C(=O)C(Cc2ccc(CCC(=O)NC3CCCCC3)cc2)=C(C)C1=O` [Prod. Ex. 175], in the assay on NF-κB (setting [2]), the 50% inhibitory concentration (IC50) is 19 µM.
Still for that read-out and setting: under `COC1=C(OC)C(=O)C(Cc2ccc(CCC(=O)Nc3ccc(O)cc3)cc2)=C(C)C1=O` [Prod. Ex. 189] stands 28 µM.
Consider `Cc1csc2ncnc(NC3Cc4ccccc4C3)c12` [Prod. Ex. 190, 4-(2-Indanylamino)-5-methylthieno[2,3-d]pyrimidine], for which the IC50 stood at 0.71 µM with NF-κB (setting [2]) and 1.1 µM with NF-κB (setting [3]).
With `CC(C)c1csc2ncnc(NC3Cc4ccccc4C3)c12` [Prod. Ex. 211, 4-(2-Indanylamino)-5-isopropylthieno[2,3-d]pyrimidine], the IC50 was determined as 0.064 µM in the assay on NF-κB (setting [2]) and 0.13 µM in the assay on NF-κB (setting [3]).
Regarding `Cc1csc2ncnc(NC3Cc4ccc(Oc5ccccc5)cc4C3)c12` (stereo not drawn) [Prod. Ex. 214, 4-(5-Phenoxyindan-2-yl)amino-5-methylthieno[2,3-d]pyrimidine], the IC50 in the assay on NF-κB (setting [2]) amounted to 0.15 µM.
`Cc1csc2ncnc(NC3Cc4ccc(C(=O)NCc5ccccc5)cc4C3)c12` (stereo not drawn) [Prod. Ex. 220, N-Benzyl-2-(5-methylthieno[2,3-d]pyrimidine-4-yl)amino-5-indan Carboxamide]: the half-maximal inhibitory concentration (IC50) in the assay on NF-κB (setting [2]) worked out at 0.072 µM; with NF-κB (setting [3]), 0.12 µM.
